Measurements from article PMC3953482, “Fha Interaction with Phosphothreonine of TssL Activates Type VI Secretion in Agrobacterium tumefaciens” (PLoS Pathogens, 2014).
“Also recorded” adds a separate entry of the source. Non-standard residues stand in square brackets, D forms with d. No end group written: not given here. pT = C[C@@H](OP(=O)(O)O)[C@H](N)C(=O)O

Tests used:
[1] = molecular target: Fha7-309^WT; experiment: Isothermal titration calorimetry (ITC) of TssL peptides with Fha7-309^WT; assay type: binding, A. tumefaciens; details: 25°C, 50 mM Tris-HCl (pH 8.0), 150 mM NaCl, 200 µM protein in cell, 6 mM peptide in syringe, result in words
Method: ITC analysis was used to determine the binding affinity and stoichiometry between Fha and TssL T-14 peptide with use of the MicroCal iTC200 system (GE Healthcare) and analyzed with ORIGIN software. Truncated His-tagged Fha^7–267 and Fha^7–309 proteins were overexpressed and purified from E. coli BL21(DE3) as described. The proteins and various synthetic peptides were dissolved in buffer containing 50 mM Tris-HCl (pH 8.0), 150 mM NaCl. Synthetic phosphorylated TssL (DLPpTVVEI, p-TssL^8 mer; DNPSSWQDLPpTVVEITEESR, p-TssL^20 mer), unphosphorylated TssL (DLPTVVEI, TssL^8 mer), and phosphorylated CHK2 (VSpTQEL, p-CHK2^6 mer) peptides, were used to titrate the various Fha^7–267 or Fha^7–309 proteins at 25°C with a total 25 times of injections with 200 µM protein in the sample cell and 6 mM peptide in the injection syringe. The titration heat was calculated to eliminate the effect of heat generated from titrating the ligand into buffer. […]
Supplementary file ppat.1003991.s006.tif: Figure S6 SDS-PAGE analysis of purified Fha proteins and isothermal titration calorimetry (ITC) analysis. […] Five µg of purified Fha proteins (Fha7-267^WT, Fha7-267^R30AS46A, Fha7-309^WT) was analyzed by 12% SDS-PAGE and stained by Coomassie blue to ensure protein purity. […]

[2] = molecular target: Fha7-267^WT; experiment: Isothermal titration calorimetry (ITC) of TssL/CHK2 peptides with Fha7-267^WT; assay type: binding, A. tumefaciens; details: 25°C, 50 mM Tris-HCl (pH 8.0), 150 mM NaCl, 200 µM protein in cell, 6 mM peptide in syringe, result in words
Excerpt: Because FHA domains are well known to bind to pThr residues specifically [33]–[35], we hypothesized that Fha specifically binds Thr 14-phosphorylated TssL to activate type VI secretion. To test this hypothesis, we first performed isothermal titration calorimetry (ITC) analysis with purified Fha proteins and synthetic phosphorylated- and unphosphorylated TssL N-terminal peptides. Because of the instability of full-length Fha protein purified from E. coli (data not shown), we purified truncated Fha proteins with different lengths for the ITC experiments (Figure S6A). […] The binding affinity was ∼3-fold higher (Kd 0.54±0.07 mM) with a longer phosphorylated TssL peptide (DNPSSWQDLPpTVVEITEESR, p-TssL^20 mer) (Figure 6B). […] (Figure 6C, 6E).
Figure 6 Phosphorylated TssL is a direct binding partner of Fha. Isothermal titration calorimetry (ITC) of specific binding between Fha and TssL peptides. […]
ITC analysis was used to determine the binding affinity and stoichiometry between Fha and TssL T-14 peptide with use of the MicroCal iTC200 system (GE Healthcare) and analyzed with ORIGIN software. […] The titration heat was calculated to eliminate the effect of heat generated from titrating the ligand into buffer. […]

[3] = molecular target: Fha7-267^WT (truncated His-tagged Fha with the intact FHA domain) (Agrobacterium tumefaciens C58); experiment: ITC; MicroCal iTC200; 200 µM Fha protein in the sample cell, 6 mM peptide in the injection syringe, 25 injections, 25°C, 50 mM Tris-HCl (pH 8.0), 150 mM NaCl; One Set of Sites model with the N value fixed at 1
[4] = molecular target: Fha7-309^WT (longer version of the truncated Fha protein) (Agrobacterium tumefaciens C58); experiment: as above

## DLPTVVEI [TssL^8 mer, synthetic unphosphorylated TssL peptide (DLPTVVEI)]
[1]
  binding affinity, not detectable: undetectable
[2]
  equilibrium dissociation constant (Kd), binding not detectable: could not detect the binding affinity; also recorded: Undetectable

## VSpTQEL [p-CHK2^6 mer, 6 mer phosphorylated CHK2 peptide (VSpTQEL), control, reference compound]
[2]
  equilibrium dissociation constant (Kd), binding not detectable: could not detect the binding affinity; also recorded: Undetectable

## DNPSSWQDLP[pT]VVEITEESR [20 mer phosphorylated TssL peptide (…p…)]
[3]
  Kd: 540 µM

## DLP[pT]VVEI [8 mer phosphorylated TssL peptide (DLPpTVVEI)]
[4]
  Kd: 2150 µM
[3]
  Kd: 1580 µM
